{"source": "paper PMC12526212", "about": "“Novel Isolongifolenone-Based Caprolactam Derivatives as Potential Anticancer Agents via the p53/mTOR/Autophagy Pathway” (Molecules, 2025)", "key": {"[1]": {"test_system": "A549", "assay": "CCK-8 antiproliferative assay, A549", "type": "cell-based", "conditions": "Homo sapiens, A549; CCK-8, 48 h, mean ± SD of three experiments; read-out: IC50 A549", "experimental": "(§1) After synthesis and characterization, the isolongifolenone bicyclocaprolactam derivatives were evaluated for their in vitro antiproliferative activity against three cancer cell lines (MCF-7, HepG2, A549) using a CCK-8 assay. […] In general, the antiproliferative activities of most of these compounds were similar, irrespective of whether electron-withdrawing or electron-donating substituents were introduced in the phenoxy ring.\n(§2) Three cancer cell lines (human breast adenocarcinoma cells MCF-7, human lung adenocarcinoma epithelial cells A549, and human hepatocellular carcinoma cells HepG2) were obtained from the Cell Bank of the Chinese Academy of Sciences (Shanghai, China). LO2 human normal liver cells were also purchased from STEM RECELL (Beijing, China, STM-CL-5770). The anti-proliferation activity of compounds was tested on three cancer cell lines. The cytotoxicity of compounds as tested on normal cell line (human normal liver cells LO2). Cells were seeded at a density of 5000 cells per well in 96-well plates. Natural product piperlongumine was used as the positive control. All experiments were performed in triplicate. Three cancer cell lines were cultured in High DMEM medium or RIPM 1640 containing 10% FBS (Sijiqing, Hangzhou, China) and 1% antibiotics at 37 °C in a 5% CO2 incubator. The experimental cells were seeded in a 96-well plate at 5000 cells per well and incubated for 24 h. The old medium was replaced with experimental medium, and the cells were cultured for 48 h. Afterward, 10 µL of CCK-8 solution was added to each well, and the cells were incubated for 3 h. The absorbance at 450 nm was measured using a microplate reader."}, "[2]": {"test_system": "MCF-7", "assay": "CCK-8 antiproliferative assay, MCF-7", "type": "cell-based", "conditions": "Homo sapiens, MCF7; CCK-8, 48 h, mean ± SD of three experiments; read-out: IC50 MCF-7", "experimental": "as §1, §2"}}}
{"smiles": "CC1(C)C2=CC(=O)N(C(=O)C=Cc3cccc(C(F)(F)F)c3)CC(C)(C)C23CCC1C3", "note": "(centres unmarked) [E10, 5,5,9,9-Tetramethyl-3-(3-(3-(trifluoromethyl)phenyl)acryloyl)-4,5,6,7,8,9-hexahydro-5a,8-methanobenzo[d]azepin-2(3H)-one]", "values": [{"measurement": "IC50", "setting": "[1]", "result": "1.39 ± 0.32", "unit": "µM"}, {"measurement": "IC50", "setting": "[2]", "result": "0.32 ± 0.05", "unit": "µM"}]}
